# Measurements reported in patent publication US20220274947A1, “NOVEL HETEROARYL-TRIAZOLE COMPOUNDS AS PESTICIDES” (Bayer Aktiengesellschaft, priority 2019, published 2022).
# Experiments:
# Type in all cases: in vivo
# Rhipicephalus microplus [1] = experiment: Rhipicephalus (Boophilus) microplus injection test (BOOPMI Inj); settings: 168 h, injection into adult engorged female ticks, egg deposition after 7 days, read-out: activity (efficacy: 100% means all eggs are infertile); for pest or weed control at 0.004 mg: application rate 4 μg/tick; for pest or weed control at 0.02 mg: application rate 20 μg/tick
# Procedure, shortened: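 Compound in DMSO, 1 μL, injected abdominally into five adult engorged females, which were then held in a climate chamber. Read-out is egg fertility, scored from deposition at 7 days, with unclear eggs followed to hatching (~42 days); 0% means all eggs fertile, 100% all infertile.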
# Rhipicephalus microplus [2] = experiment: Rhipicephalus (Boophilus) microplus in-vitro contact test, larval cattle tick, strain Parkhurst (BOOPMI Cont); settings: application rate 5 μg/cm^2 (=500 g/ha), tick larvae, after 48 hours, read-out: activity (efficacy: 100% means all larvae are dead or moribund)
# Procedure, shortened: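 After 48 h at 27° C. and 85% humidity, percent dead or moribund larvae was scored from negative geotactic behaviour. Larvae (20-50, Parkhurst strain, synthetic pyrethroid-resistant) were exposed in tubes coated with compound from acetone, 900 ppm corresponding to 5 μg/cm^2.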
# Ctenocephalides felis = Ctenocephalides felis in-vitro contact test, adult cat flea (CTECFE Cont); settings: application rate 5 μg/cm^2 (=500 g/ha), adult cat fleas, after 48 hours, read-out: activity (efficacy: 100% means all fleas are dead or moribund)
# Procedure, shortened: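 Efficacy, as percent of fleas dead or moribund, was scored 48 h after adults (5-10 per tube) were placed in glass tubes whose walls carried dried compound at 5 μg/cm^2 (900 ppm solution). Moribund meant failing to climb away from a 45-50° C. hot plate within 5 min.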
# Diabrotica balteata = Diabrotica balteata spray test; settings: 168 h, wheat seeds, larvae, after 7 days, read-out: activity (efficacy: 100% means all seedlings have grown up like in the untreated, uninfected control); for pest or weed control at 32 µg/disc, 100 g/ha: application rate 100 g/ha (=32 μg/well); for pest or weed control at 160 µg/disc, 500 g/ha: application rate 500 g/ha (=160 μg/well)
# Procedure, shortened: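 Efficacy (%) was scored 7 days after spraying, with 100% meaning growth like the untreated, uninfected control and 0% meaning no seedling grew. Spray solutions of compound in acetone/DMF with emulsifier-containing water went onto 1-day-germinated wheat seeds, and each unit was then infested with 10-20 banded cucumber beetle larvae.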
# Myzus persicae = Myzus persicae spray test; settings: in Brassica rapa, foliar, 120 h; for mortality at 500 g/ha: read-out: activity (mortality), application rate 500 g/ha, spray, Chinese cabbage leaf disks, after 5 days; for mortality at 100 g/ha: read-out: activity (mortality), application rate 100 g/ha, spray, Chinese cabbage leaf disks, after 5 days
# Procedure, shortened: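 Aphid mortality in % was assessed 5 days after spraying; leaf disks of Brassica pekinensis carrying mixed-instar green peach aphids were treated. Spray preparation: active compound in acetone plus dimethylformamide, diluted with emulsifier-containing water (1000 ppm).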
# Spodoptera frugiperda = Spodoptera frugiperda spray test; settings: in Zea mays, 168 h, read-out: activity (mortality)
# Procedure, shortened: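 Percent kill of fall armyworm caterpillars was assessed 7 days after infesting dried, treated maize leaf sections. Treatment was a spray of compound in acetone/dimethylformamide, diluted with water containing emulsifier at 1000 ppm.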
# [3] = test system: Culex quinquefasciatus strain P00; experiment: Culex quinquefasciatus test (CULXFA surface treatment & contact assay); settings: exposure 30 minutes, 24 hours after contact, read-out: efficacy (mortality); for mortality at 4 mg/m2: surface concentration 4 mg/m^2, glazed tile; for mortality at 20 mg/m2: surface concentration 20 mg/m^2, glazed tile
# Protocol: Culex quinquefasciatus Test (CULXFA Surface Treatment & Contact Assay) Solvent: Aceton+2000 ppm rapeseed oil methyl ester (RME)
# In order to produce a sufficient, active ingredient containing solution it is necessary to solve the test compound in the solvent-mix (acetone at 2 mg/ml/RME 2 000 ppm). This solution is pipetted onto a glazed tile and after evaporation of the acetone, adult mosquitoes of the species Culex quinquefasciatus strain P00 are placed onto the dried surface. The exposure time is 30 minutes. Mortality in percent (%) is determined 24 hours after contact of the insects to the treated surface. 100% mortality means that all tested insects are dead, whereas 0% means that no insect died.
Compound,pest or weed control at 0.004 mg (Rhipicephalus microplus [1]) [%],pest or weed control at 0.02 mg (Rhipicephalus microplus [1]) [%],pest or weed control at 5 µg/cm2 (Rhipicephalus microplus [2]) [%],pest or weed control at 5 µg/cm2 (Ctenocephalides felis) [%],"pest or weed control at 32 µg/disc, 100 g/ha (Diabrotica balteata) [%]","pest or weed control at 160 µg/disc, 500 g/ha (Diabrotica balteata) [%]",mortality at 500 g/ha (Myzus persicae) [%],mortality at 500 g/ha (Spodoptera frugiperda) [%],mortality at 4 mg/m2 [3] [%],mortality at 20 mg/m2 [3] [%],mortality at 100 g/ha (Myzus persicae) [%],mortality at 100 g/ha (Spodoptera frugiperda) [%]
C[C@H](NC(=O)c1ccnc(C(F)(F)F)n1)c1ncnn1-c1ccc(C#N)cn1 [II-8],100,100,100,90,100,100,90,100,80 to 100,80 to 100,,
C[C@H](NC(=O)c1cc(Cl)cc(C(F)F)c1)c1ncnn1-c1ccc(C#N)cn1 [II-12],100,100,100,100,100,100,90,100,80 to 100,80 to 100,90,100
C[C@H](NC(=O)c1cc(Cl)nc(C(F)(F)F)c1)c1ncnn1-c1ccc(C#N)cn1 [II-5],100,100,100,100,100,100,90,100,,80 to 100,,100
C[C@H](NC(=O)c1cc(C(F)(F)F)cc(C(F)(F)F)c1)c1ncnn1-c1ccc(C(=O)NC2CC2)cn1 [II-37],100,100,100,100,100,100,100,100,,80 to 100,,100
Cc1nc([C@H](C)NC(=O)c2cc(Cl)cc(Br)c2)n(-c2ccc(C#N)cn2)n1 [II-50],100,100,100,100,100,,,,80 to 100,,100,100
CCN(C)C(=O)c1ccc(-n2ncnc2[C@H](C)NC(=O)c2cc(Cl)cc(C(F)(F)F)c2)nc1 [II-27],100,100,100,100,,100,90,83,,80 to 100,,83
Cc1nc([C@H](C)NC(=O)c2cc(Br)cc(Br)c2)n(-c2ccc(C#N)cn2)n1 [II-52],100,100,100,100,100,,,,80 to 100,,90,100
Cc1nc([C@H](C)NC(=O)c2cc(Cl)nc(C(F)(F)F)c2)n(-c2ccc(C#N)cn2)n1 [II-62],100,100,100,100,100,,,,,80 to 100,100,100
C[C@H](NC(=O)c1cc(C(F)(F)F)cc(C(F)(F)F)c1)c1ncnn1-c1ncc(Cl)s1 [II-40],100,100,100,100,100,100,100,100,80 to 100,80 to 100,,100
C[C@H](NC(=O)c1cc(Cl)cc(OC(F)(F)F)c1)c1ncnn1-c1ncc(Cl)s1 [II-16],100,100,100,100,100,100,,,,80 to 100,90,100
